According to ChEMBL document CHEMBL1155237, “Selective inhibitors of the mutant B-Raf pathway: discovery of a potent and orally bioavailable aminoisoquinoline” (J Med Chem, 2009):

Columns and labels:
Mus musculus [1] = assay: Inhibition of ERK phosphorylation in human A375 SQ2 cells xenografted CD1 mouse at 2 mg/kg, po qd after 6 hrs; assay type: functional; details: CD1, A-375, 6 h
[2] = biological target: Dual specificity mitogen-activated protein kinase kinase 4 (Homo sapiens) (UniProt P45985); assay: Inhibition of MEK4 assessed as enzyme activity at 1 uM relative to untreated control; design: scale not given: the % may be the effect or the level left
Chain of Dual specificity mitogen-activated protein kinase kinase 4 (Homo sapiens) (P45985 whole entry): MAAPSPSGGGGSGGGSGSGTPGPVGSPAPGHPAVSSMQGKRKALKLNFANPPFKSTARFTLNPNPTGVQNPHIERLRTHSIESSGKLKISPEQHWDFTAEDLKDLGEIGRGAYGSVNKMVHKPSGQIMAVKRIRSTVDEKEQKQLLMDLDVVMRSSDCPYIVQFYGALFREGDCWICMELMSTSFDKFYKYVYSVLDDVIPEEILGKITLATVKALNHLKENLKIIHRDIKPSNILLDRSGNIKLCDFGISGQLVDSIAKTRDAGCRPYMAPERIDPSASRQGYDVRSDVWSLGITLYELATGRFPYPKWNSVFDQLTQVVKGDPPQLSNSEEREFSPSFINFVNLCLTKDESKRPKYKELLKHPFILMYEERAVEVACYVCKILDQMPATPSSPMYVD

[3] = biological target: Myosin-IIIb (Homo sapiens) (UniProt Q8WXR4); assay: Inhibition of MYO3B assessed as enzyme activity at 1 uM relative to untreated control; design: scale not given: the % may be the effect or the level left
Chain of Myosin-IIIb (Homo sapiens) (Q8WXR4 whole entry): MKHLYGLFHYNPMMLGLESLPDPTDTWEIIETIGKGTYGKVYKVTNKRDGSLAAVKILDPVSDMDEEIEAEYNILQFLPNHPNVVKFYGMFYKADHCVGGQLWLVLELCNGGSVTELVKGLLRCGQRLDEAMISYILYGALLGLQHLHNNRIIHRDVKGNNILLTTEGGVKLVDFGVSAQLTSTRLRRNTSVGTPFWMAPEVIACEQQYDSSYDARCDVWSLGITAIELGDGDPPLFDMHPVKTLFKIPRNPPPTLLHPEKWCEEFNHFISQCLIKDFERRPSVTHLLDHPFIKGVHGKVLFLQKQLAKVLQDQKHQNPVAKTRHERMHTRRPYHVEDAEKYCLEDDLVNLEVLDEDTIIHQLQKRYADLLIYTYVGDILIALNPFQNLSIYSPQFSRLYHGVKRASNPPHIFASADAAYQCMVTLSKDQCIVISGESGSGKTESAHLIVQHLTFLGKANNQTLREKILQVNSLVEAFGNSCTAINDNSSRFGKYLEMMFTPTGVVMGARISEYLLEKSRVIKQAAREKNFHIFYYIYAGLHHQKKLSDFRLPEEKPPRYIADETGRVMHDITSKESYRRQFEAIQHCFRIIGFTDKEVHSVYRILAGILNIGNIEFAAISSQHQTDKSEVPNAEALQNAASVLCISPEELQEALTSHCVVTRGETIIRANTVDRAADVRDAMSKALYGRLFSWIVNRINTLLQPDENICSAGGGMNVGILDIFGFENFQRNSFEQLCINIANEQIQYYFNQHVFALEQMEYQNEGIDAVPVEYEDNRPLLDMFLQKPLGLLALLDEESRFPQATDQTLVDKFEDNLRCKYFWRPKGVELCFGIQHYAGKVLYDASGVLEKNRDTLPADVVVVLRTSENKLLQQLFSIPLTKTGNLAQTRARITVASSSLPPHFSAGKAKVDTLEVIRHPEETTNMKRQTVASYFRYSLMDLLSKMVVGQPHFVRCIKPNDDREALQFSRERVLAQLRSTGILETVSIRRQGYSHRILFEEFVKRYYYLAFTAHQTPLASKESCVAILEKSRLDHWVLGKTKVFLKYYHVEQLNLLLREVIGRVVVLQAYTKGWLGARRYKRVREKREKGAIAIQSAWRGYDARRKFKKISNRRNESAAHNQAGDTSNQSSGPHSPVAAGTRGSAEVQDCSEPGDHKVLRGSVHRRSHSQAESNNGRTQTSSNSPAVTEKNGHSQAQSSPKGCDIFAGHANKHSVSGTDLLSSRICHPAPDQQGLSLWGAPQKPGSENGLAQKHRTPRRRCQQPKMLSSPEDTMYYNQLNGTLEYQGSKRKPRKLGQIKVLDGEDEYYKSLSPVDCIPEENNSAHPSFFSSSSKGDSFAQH

[4] = biological target: Calcium/calmodulin-dependent protein kinase type 1G (Homo sapiens) (UniProt Q96NX5); assay: Inhibition of CAMK1G assessed as enzyme activity at 1 uM relative to untreated control; design: scale not given: the % may be the effect or the level left
Chain of Calcium/calmodulin-dependent protein kinase type 1G (Homo sapiens) (Q96NX5 whole entry): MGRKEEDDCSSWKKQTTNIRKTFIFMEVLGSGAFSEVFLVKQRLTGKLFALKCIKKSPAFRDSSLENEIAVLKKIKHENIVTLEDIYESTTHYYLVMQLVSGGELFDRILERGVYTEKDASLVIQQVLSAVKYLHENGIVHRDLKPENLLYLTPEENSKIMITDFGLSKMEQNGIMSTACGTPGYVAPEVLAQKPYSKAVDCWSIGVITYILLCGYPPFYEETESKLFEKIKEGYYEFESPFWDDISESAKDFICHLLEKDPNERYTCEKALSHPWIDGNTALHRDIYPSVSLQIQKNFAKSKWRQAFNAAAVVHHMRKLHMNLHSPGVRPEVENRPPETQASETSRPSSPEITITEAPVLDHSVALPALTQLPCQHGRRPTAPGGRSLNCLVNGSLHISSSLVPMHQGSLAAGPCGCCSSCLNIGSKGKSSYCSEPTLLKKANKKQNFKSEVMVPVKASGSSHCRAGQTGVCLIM

[5] = biological target: Cyclin-dependent kinase 19 (Homo sapiens) (UniProt Q9BWU1); assay: Inhibition of CDK11 assessed as enzyme activity at 1 uM relative to untreated control; design: scale not given: the % may be the effect or the level left
Chain of Cyclin-dependent kinase 19 (Homo sapiens) (Q9BWU1 whole entry): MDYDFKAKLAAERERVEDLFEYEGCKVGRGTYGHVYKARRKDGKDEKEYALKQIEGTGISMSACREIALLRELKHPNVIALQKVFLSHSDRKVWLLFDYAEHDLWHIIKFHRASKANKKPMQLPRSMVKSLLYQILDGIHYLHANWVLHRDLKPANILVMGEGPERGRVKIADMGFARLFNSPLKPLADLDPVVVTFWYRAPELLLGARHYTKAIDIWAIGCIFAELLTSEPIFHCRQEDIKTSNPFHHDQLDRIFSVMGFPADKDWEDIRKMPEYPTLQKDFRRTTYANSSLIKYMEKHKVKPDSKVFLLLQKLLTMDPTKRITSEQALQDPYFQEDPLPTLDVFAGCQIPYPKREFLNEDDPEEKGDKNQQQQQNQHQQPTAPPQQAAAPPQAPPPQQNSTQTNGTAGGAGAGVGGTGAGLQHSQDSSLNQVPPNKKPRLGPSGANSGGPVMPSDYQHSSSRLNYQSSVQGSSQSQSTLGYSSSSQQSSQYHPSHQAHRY

[6] = biological target: Interferon-induced, double-stranded RNA-activated protein kinase (Homo sapiens) (UniProt P19525); assay: Inhibition of PRKR assessed as enzyme activity at 1 uM relative to untreated control; design: scale not given: the % may be the effect or the level left
Chain of Interferon-induced, double-stranded RNA-activated protein kinase (Homo sapiens) (P19525 whole entry): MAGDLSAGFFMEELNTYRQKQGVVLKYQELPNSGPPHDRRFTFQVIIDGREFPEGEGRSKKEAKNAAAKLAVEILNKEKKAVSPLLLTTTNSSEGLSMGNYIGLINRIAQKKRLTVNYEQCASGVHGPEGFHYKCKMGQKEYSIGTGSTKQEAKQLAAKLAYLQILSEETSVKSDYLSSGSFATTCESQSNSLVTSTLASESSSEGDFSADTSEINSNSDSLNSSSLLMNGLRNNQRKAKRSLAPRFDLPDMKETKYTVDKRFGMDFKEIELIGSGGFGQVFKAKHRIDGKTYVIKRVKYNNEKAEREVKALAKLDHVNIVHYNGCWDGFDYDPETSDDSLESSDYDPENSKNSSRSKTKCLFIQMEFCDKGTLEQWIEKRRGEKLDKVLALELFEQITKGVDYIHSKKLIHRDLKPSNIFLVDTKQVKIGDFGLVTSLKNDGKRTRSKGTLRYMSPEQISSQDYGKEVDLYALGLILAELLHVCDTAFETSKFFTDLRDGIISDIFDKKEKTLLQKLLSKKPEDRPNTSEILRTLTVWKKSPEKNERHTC

[7] = biological target: Fibroblast growth factor receptor 2 (Homo sapiens) (UniProt P21802); assay: Inhibition of FGFR2 assessed as enzyme activity at 1 uM relative to untreated control; design: scale not given: the % may be the effect or the level left
Chain of Fibroblast growth factor receptor 2 (Homo sapiens) (P21802 22-821 limits assumed): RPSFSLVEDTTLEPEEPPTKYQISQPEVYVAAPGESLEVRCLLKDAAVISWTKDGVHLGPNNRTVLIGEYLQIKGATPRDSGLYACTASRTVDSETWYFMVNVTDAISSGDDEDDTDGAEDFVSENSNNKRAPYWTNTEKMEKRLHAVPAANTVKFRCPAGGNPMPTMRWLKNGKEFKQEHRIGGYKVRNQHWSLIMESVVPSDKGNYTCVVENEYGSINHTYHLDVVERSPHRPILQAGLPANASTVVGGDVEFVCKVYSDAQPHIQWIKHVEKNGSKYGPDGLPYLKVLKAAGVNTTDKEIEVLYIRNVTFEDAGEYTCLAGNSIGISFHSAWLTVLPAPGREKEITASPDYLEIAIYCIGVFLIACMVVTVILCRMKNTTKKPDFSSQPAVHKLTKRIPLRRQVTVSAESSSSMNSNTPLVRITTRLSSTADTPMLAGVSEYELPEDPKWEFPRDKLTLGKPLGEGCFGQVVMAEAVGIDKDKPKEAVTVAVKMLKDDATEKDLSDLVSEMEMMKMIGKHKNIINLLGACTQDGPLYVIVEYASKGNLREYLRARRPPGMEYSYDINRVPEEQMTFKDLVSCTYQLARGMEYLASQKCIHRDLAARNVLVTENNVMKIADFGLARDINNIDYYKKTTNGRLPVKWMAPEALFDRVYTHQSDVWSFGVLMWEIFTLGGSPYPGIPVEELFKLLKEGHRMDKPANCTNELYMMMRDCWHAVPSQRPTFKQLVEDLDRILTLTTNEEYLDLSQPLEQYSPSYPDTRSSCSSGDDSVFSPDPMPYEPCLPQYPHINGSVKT

[8] = test system: eIF-2-alpha kinase GCN2 (Homo sapiens), Q9P2K8 [S808G]; assay: Inhibition of GCN2 kinase domain-2 S808G mutant assessed as enzyme activity at 1 uM relative to untreated control; design: scale not given: the % may be the effect or the level left
Mus musculus [9] = assay: Inhibition of ERK phosphorylation in human A375 SQ2 cells xenografted CD1 mouse at 5 mg/kg, po qd after 6 hrs; assay type: functional; details: CD1, A375-SQ2, 6 h
[10] = biological target: Serine/threonine-protein kinase 32C (Homo sapiens) (UniProt Q86UX6); assay: Inhibition of YANK3 assessed as enzyme activity at 1 uM relative to untreated control; design: scale not given: the % may be the effect or the level left
Chain of Serine/threonine-protein kinase 32C (Homo sapiens) (Q86UX6 whole entry): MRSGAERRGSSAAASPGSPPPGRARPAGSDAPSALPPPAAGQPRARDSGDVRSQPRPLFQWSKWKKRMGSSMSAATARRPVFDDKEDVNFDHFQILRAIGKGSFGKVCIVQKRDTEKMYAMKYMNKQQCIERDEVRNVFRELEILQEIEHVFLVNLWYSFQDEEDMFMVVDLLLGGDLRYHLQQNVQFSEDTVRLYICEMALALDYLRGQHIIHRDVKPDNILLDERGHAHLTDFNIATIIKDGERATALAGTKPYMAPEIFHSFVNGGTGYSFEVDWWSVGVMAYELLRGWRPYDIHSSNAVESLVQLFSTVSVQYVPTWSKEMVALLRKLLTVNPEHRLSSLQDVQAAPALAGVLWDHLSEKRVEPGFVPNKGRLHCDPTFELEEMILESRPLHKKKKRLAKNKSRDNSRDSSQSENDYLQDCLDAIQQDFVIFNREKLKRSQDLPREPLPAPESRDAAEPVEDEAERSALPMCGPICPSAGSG

Cc1ccc2c(Nc3ccc(Cl)cc3)nccc2c1Nc1ncccc1-c1ncnc2[nH]cnc12.Cl.Cl.Cl was tested, and the inhibition in vivo at 2 mg/kg (Mus musculus [1]) was 69%, the Activity [2] was 93% and the Activity [3] was 68%. The Activity [4] was 100%, the Activity [5] was 100% and the Activity [6] was 97%. It also gave an Activity [7] of 38%, an Activity [8] of 100% and an inhibition in vivo at 5 mg/kg (Mus musculus [9]) of 77%. The Activity [10] was 84%.
